Results as given in publication PMC8763920, “Unprotected peptide macrocyclization and stapling via a fluorine-thiol displacement reaction” (Nature Communications, 2022).
*1 amine or outer side, *2 acyl side, *3 side chain or, on linkers, in order; H or OH if unused. Where a SMILES comes first, the peptide text is derived from it. Bridges are numbered along the chain shown (N, C = ends). [ ]: non-standard residue; d: D form. The star is where a group is joined. Benzene(1,3-(CH2SCH2CO)2) = O=C(CSCc1cccc(CSCC(=O)[*:2])c1)[*:1]; FITC = O=C1OC2(c3ccc(O)cc3Oc3cc(O)ccc32)c2ccc(NC(=S)*)cc21; Dap = NC[C@H](N)C(=O)O; βAla = NCCC(=O)O

Experiments:
circular dichroism = settings: water; pH ns; 25 °C; 70 uM
[1] = system: p53 wild-type HCT-116 cells; assay type: cell-based; settings: human
[2] = Circular dichroism, % alpha helicity; assay type: physicochemical; settings: CD, 70 µM peptide, 25 °C, from MRE at 222 nm, three scans averaged; Axin and p53 peptides in water, HIV-targeting peptides in 25% acetonitrile/water
Protocol: The final concentration of the peptide samples was 70 µM. Circular dichroism (CD) measurements were performed on a Jasco model J-815 spectropolarimeter with a 1 mm Jasco quartz cell over the wavelength range of 180–250 nm. The scans were carried out at 0.2 nm resolution with 4 s average time at 25 °C. Data from three scans were averaged, base line corrected, and normalized to the mean residue ellipticity (MRE) following the equation: [θ]λ = [θ]obs/(10 × l × C × n). [θ]λ is MRE in deg × cm^2 × dmol^−1; [θ]obs is the measured ellipticity; C is the concentration of peptides in M; l is the optical pathlength in cm; and n is the number of residues in peptides. The % alpha helicity was calculated from the MRE values at 222 nm, using the equation % helicity = ([θ]222−[θ]0)/([θ]max−[θ]0) based on the previously reported method. [θ]222 is the MRE value at 222 nm; [θ]max is the maximum theoretical MRE value for a helix of n residues; and [θ]0 is the MRE value of the peptide in random coil conformation that usually equals to (2220-53T)[86].

HeLa cells = test: Cell penetration of STAD peptides, confocal imaging; assay type: cell-based; settings: 5 µM peptide, 2 h, confocal microscopy, 78 normalized as 1, mean ± SEM
Protocol: Hoechst 33342 dye and FITC-labelled peptides were excited with 405 and 488 nm lasers (Coherent OBIS), respectively. Images were analysed with NIH ImageJ software. Using the “analyse particles” function, we measured the area and intensity of individual cells (Supplementary Fig. 34a)[87]. […] However, from the distribution of data we found the best fit curve to be lognormal. Outliers were then removed using a Grubbs test (Supplementary Fig. 35b)[88]. We determined the optimal bin size for the histogram using the Freedman–Draconis rule[89]. The mean fluorescence intensity from each treatment group was calculated from n ≥ 100 cells. Error bars represented SE. P values were calculated by two sided Welch’s t test for comparison with internalization of RCM-stapled control peptides.
For FITC-labelled SAHBA analogues, 5 μM of each was incubated with Jurkat cells for 4 h[13]. The rest of the imaging procedures were done the same as mentioned above. Likewise, 5 µM of STAD peptides were incubated with HeLa cells for 2 h[71], followed by similar imaging studies; and 2 µM of p53 peptide analouges were mixed with HCT116 wt cells for 4 h before the imaging analysis of their cellular uptake. Cell samples treated with STAD or p53 series of peptide analogues were also simulatenously stained by propidium iodide (PI) to ensure the cell viability and membrane integrity.

| mean intensity versus RCM stapled STAD 78 (HeLa cells) [fold] | Compound | helicity (circular dichroism) [%] | EC50 [1] [nM] | Helicity (%) [2] [%] |
| --- | --- | --- | --- | --- |
| – | CC(=O)N[C@@H](CCC(N)=O)C(=O)N[C@@H](CO)C(=O)N[C@@H](CCC(N)=O)C(=O)N[C@@H](CCC(N)=O)C(=O)N[C@H](C(=O)N[C@@H](Cc1ccccc1)C(=O)N[C@H]1CNC(=O)CSCc2ccc(cc2)CSCC(=O)NC[C@H](C(=O)N[C@@H](CCC(N)=O)C(=O)N[C@@H](CC(N)=O)C(N)=O)NC(=O)[C@H](CC(C)C)NC(=O)[C@H](CC(C)C)NC(=O)[C@H](CCCNC(=N)N)NC(=O)[C@H](Cc2c[nH]c3ccccc23)NC(=O)[C@H](CC(C)C)NC(=O)[C@H](CC(N)=O)NC1=O)[C@@H](C)O [compound 87] | 64 | 710 ± 180 | 64 |
| – | CC(=O)N[C@@H](CCC(N)=O)C(=O)N[C@@H](CO)C(=O)N[C@@H](CCC(N)=O)C(=O)N[C@@H](CCC(N)=O)C(=O)N[C@H](C(=O)N[C@@H](Cc1ccccc1)C(=O)N[C@H]1CNC(=O)CSCc2ccc(cc2)CSCC(=O)NC[C@@H](C(=O)N[C@@H](CCC(N)=O)C(=O)N[C@@H](CC(N)=O)C(N)=O)NC(=O)[C@H](CC(C)C)NC(=O)[C@H](CC(C)C)NC(=O)[C@H](CCCNC(=N)N)NC(=O)[C@H](Cc2c[nH]c3ccccc23)NC(=O)[C@H](CC(C)C)NC(=O)[C@H](CC(N)=O)NC1=O)[C@@H](C)O [compound 82] | 61 | 660 ± 190 | – |
| 2.92 ± 0.08 | CC[C@H](C)[C@@H]1NC(=O)[C@@H](NC(=O)[C@H](CC(=O)O)NC(=O)[C@H](C)NC(=O)[C@H](CC(C)C)NC(=O)[C@H](CCC(N)=O)NC(=O)[C@H](CCCCN)NC(=O)[C@H](C)NC(=O)[C@H](Cc2ccc(O)cc2)NC(=O)[C@H](CCCCN)NC(=O)[C@H](CCCCN)NC(=O)CCNC(=S)Nc2ccc3c(c2)C(=O)OC32c3ccc(O)cc3Oc3cc(O)ccc32)CNC(=O)CSCc2cccc(c2)CSCC(=O)NC[C@@H](C(=O)N[C@@H](C)C(=O)N[C@H](C(=O)N[C@@H](CCC(=O)O)C(N)=O)[C@@H](C)O)NC(=O)[C@H](CCCCN)NC(=O)[C@H]([C@@H](C)CC)NC1=O [compound 75] ({FITC-βAla}-KKYAKQLAD[Dap]IIK[Dap]ATE-NH2; linker 10-14 via Benzene(1,3-(CH2SCH2CO)2)) | – | – | – |
